According to patent US7365082B2, “N-(substituted arylmethyl)-4-(disubstituted methyl)piperidines and piperazines” (Bayer CropScience AG, priority 2002, dated 2008):

Tested on: tobacco budworm (Heliothis virescens [Fabricius])
Assay: surface-treated diet test against tobacco budworm
Assay type: in vivo
Conditions: 0.25 millimoles of candidate insecticide on the surface of the diet, second instar larvae, five-day exposure; for Percent Mortality: compared to the total number of insects infested; for Percent Growth Inhibition: inhibition of insect weight relative to untreated controls
Experimental: Candidate insecticides were evaluated for activity against the tobacco budworm (Heliothis virescens [Fabricius]) in a surface-treated diet test.
In this test one mL of molten (65-70° C.) wheat germ-based artificial diet was pipetted into each well of a four by six (24 well) multi-well plate (ID# 430345-15.5 mm dia.×17.6 mm deep; Corning Costar Corp., One Alewife Center, Cambridge, Mass. 02140). The diet was allowed to cool to ambient temperature before treatment with candidate insecticide.
For a determination of insecticidal activity, solutions of the candidate insecticides were prepared for testing using a Packard 204DT Multiprobe® Robotic System (Packard Instrument Company, 800 Research Parkway, Meriden, Conn. 06450), in which the robot first diluted a standard 50 millimolar DMSO solution of candidate insecticide with a 1:1 water/acetone solution (V/V) in a ratio of 1:7 stock solution to water/acetone. The robot subsequently pipetted 40 microliters of the so-prepared solution onto the surface of the diet in each of three wells in the 24 multi-well plate. The process was repeated with solutions of seven other candidate insecticides. Once treated, the contents of the multi-well plate were allowed to dry, leaving 0.25 millimoles of candidate insecticide on the surface of the diet, or a concentration of 0.25 millimolar. Appropriate untreated controls containing only DMSO on the diet surface were also included in this test.
For evaluations of the insecticidal activity of a candidate insecticide at varying rates of application, the test was established as described above using sub-multiples of the standard 50 millimolar DMSO solution of candidate insecticide. For example, the standard 50 millimolar solution was diluted by the robot with DMSO to give 5, 0.5, 0.05, 0.005, 0.0005 millimolar, or more dilute solutions of the candidate insecticide. In these evaluations there were six replicates of each rate of application placed on the surface of the diet in the 24 multi-well plate, for a total of four rates of application of candidate insecticide in each plate.
In each well of the test plate was placed one second instar tobacco budworm larvea, each weighing approximately five milligrams. After the larvae were placed in each well, the plate was sealed with clear polyfilm adhesive tape. The tape over each well was perforated to ensure an adequate air supply. The plates were then held in a growth chamber at 25° C. and 60% relative humidity for five days (light 14 hours/day).
After the five-day exposure period insecticidal activity for each rate of application of candidate insecticide was assessed as percent inhibition of insect weight relative to the weight of insects from untreated controls, and percent mortality when compared to the total number of insects infested.
The test compounds of formula I are identified by numbers that correspond to those in Table 1.

Compound	Percent Mortality [%]	Percent Growth Inhibition [%]
O=C(c1ccc(C(F)(F)F)cc1)C1CCNCC1 [Compound 3, 4-piperidyl 4-(trfluoromethyl)phenyl ketone]	100	100
O=C(c1ccc(OC(F)(F)F)cc1)C1CCN(Cc2ccc(F)cc2)CC1 [Compound 27]	0	97
CCCOc1ccc(CN2CCC(C(=O)c3ccc(OC(F)(F)F)cc3)CC2)cc1 [Compound 43]	100	100
O=C(c1ccc(OC(F)(F)F)cc1)C1CCN(Cc2ccc(-c3ccccn3)cc2)CC1 [Compound 62]	100	95
Cn1nnc(-c2ccc(CN3CCC(C(=O)c4ccc(OC(F)(F)F)cc4)CC3)cc2)n1 [Compound 67]	100	95
CCn1nnc(-c2ccc(CN3CCC(C(=O)c4ccc(OC(F)(F)F)cc4)CC3)cc2)n1 [Compound 72, 1-{[4-(2-ethyl(1,2,3,4-tetraazol-5-yl))phenyl]methyl}(4-piperidyl)4-(trifluoromethoxy)phenyl ketone]		95
CC(C)NN=C(c1ccc(C(F)(F)F)cc1)C1CCN(Cc2ccc(-c3nnn(C)n3)cc2)CC1 [Compound 91]	0	79
CCn1nnc(-c2ccc(CN3CCC(C(=NNc4ccccn4)c4ccc(OC(F)(F)F)cc4)CC3)cc2)n1 [Compound 92]	0	45
CCn1nnc(-c2ccc(CN3CCC(C(=Cc4ccc(OC(F)(F)F)cc4)c4ccc(Cl)cc4)CC3)cc2)n1 [Compound 94]	100	100
COc1ccc(CN2CCC(C(=NNc3ccc(OC(F)(F)F)cc3)c3ccc(OC(F)(F)F)cc3)CC2)cc1 [Compound 96]	100	96
CCCOc1ccc(CN2CCC(C(=NNc3ccc(OC(F)(F)F)cc3)c3ccc(OC(F)(F)F)cc3)CC2)cc1 [Compound 97]	100	100
CCn1nnc(-c2ccc(CN3CCC(C(=NNc4ccc(C)cc4)c4ccc(OC(F)(F)F)cc4)CC3)cc2)n1 [Compound 113]	100	100
CCn1nnc(-c2ccc(CN3CCC(C(=NNc4ccc(C(C)C)cc4)c4ccc(OC(F)(F)F)cc4)CC3)cc2)n1 [Compound 114]	100	100
CCn1nnc(-c2ccc(CN3CCC(C(=NNc4ccc(OC)cc4)c4ccc(OC(F)(F)F)cc4)CC3)cc2)n1 [Compound 116]	100	100
CCn1nnc(-c2ccc(CN3CCC(C(=NNc4ccc(C(F)(F)F)cc4)c4ccc(C(F)(F)F)cc4)CC3)cc2)n1 [Compound 118]	100	96
CCn1nnc(-c2ccc(CN3CCC(C(=NNc4ccc(OC(F)(F)F)cc4)c4ccc(C(F)(F)F)cc4)CC3)cc2)n1 [Compound 119]	100	100
CCn1nnc(-c2ccc(CN3CCC(C(=NNc4ccccc4C(F)(F)F)c4ccc(OC(F)(F)F)cc4)CC3)cc2)n1 [Compound 120]	0	40
CCn1nnc(-c2ccc(CN3CCC(C(=NNc4cccc(C(F)(F)F)c4)c4ccc(OC(F)(F)F)cc4)CC3)cc2)n1 [Compound 121]	100	100
CCn1nnc(-c2ccc(CN3CCC(C(=NNc4ccc(C(F)(F)F)cc4)c4ccc(OC(F)(F)F)cc4)CC3)cc2)n1 [Compound 122]	100	96
Cn1nnc(-c2ccc(CN3CCC(C(=NNc4ccc(OC(F)(F)F)cc4)c4ccc(OC(F)(F)F)cc4)CC3)cc2)n1 [Compound 123]	100	100
CCn1nnc(-c2ccc(CN3CCC(C(=NNc4ccc(OC(F)(F)F)cc4)c4ccc(OC(F)(F)F)cc4)CC3)cc2)n1 [Compound 124]	100	100

Compound	Percent Mortality [%]	Percent Growth Inhibition [%]
CCn1nnc(-c2ccc(CN3CCC(C(=NNc4ccc(S(N)(=O)=O)cc4)c4ccc(OC(F)(F)F)cc4)CC3)cc2)n1 [Compound 125]	100	100
CCn1nnc(-c2ccc(CN3CCC(C(=NNc4ccc([N+](=O)[O-])cc4)c4ccc(OC(F)(F)F)cc4)CC3)cc2)n1 [Compound 126]	100	100
CCn1nnc(-c2ccc(CN3CCC(C(=NNCc4ccc(C(F)(F)F)cc4)c4ccc(OC(F)(F)F)cc4)CC3)cc2)n1 [Compound 127]	100	100
CCn1nnc(-c2ccc(CN3CCC(C(=NNCc4ccc(OC(F)(F)F)cc4)c4ccc(OC(F)(F)F)cc4)CC3)cc2)n1 [Compound 128]	0	96
CCn1nnc(-c2ccc(CN3CCC(C(=NNS(=O)(=O)c4ccc(C(F)(F)F)cc4)c4ccc(OC(F)(F)F)cc4)CC3)cc2)n1 [Compound 129]	100	95
CCn1nnc(-c2ccc(CN3CCC(C(=NNS(=O)(=O)c4ccc(OC(F)(F)F)cc4)c4ccc(OC(F)(F)F)cc4)CC3)cc2)n1 [Compound 130]	100	100
O=C(NN=C(c1ccc(OC(F)(F)F)cc1)C1CCN(Cc2ccc(Oc3ccccn3)cc2)CC1)c1ccc(Cl)cc1 [Compound 131]	50	100
O=C(NN=C(c1ccc(OC(F)(F)F)cc1)C1CCN(Cc2ccc(Oc3ccccn3)cc2)CC1)c1ccc(C(F)(F)F)cc1 [Compound 132]	83	100
Cn1nnc(-c2ccc(CN3CCC(C(=NNC(=O)c4ccccc4Cl)c4ccc(OC(F)(F)F)cc4)CC3)cc2)n1 [Compound 136]	76	0
Cn1nnc(-c2ccc(CN3CCC(C(=NNC(=O)c4cccc(Cl)c4)c4ccc(OC(F)(F)F)cc4)CC3)cc2)n1 [Compound 137]	100	100
Cn1nnc(-c2ccc(CN3CCC(C(=NNC(=O)c4ccc(Cl)cc4)c4ccc(Cl)cc4)CC3)cc2)n1 [Compound 138]	0	14
Cn1nnc(-c2ccc(CN3CCC(C(=NNC(=O)c4ccc(Cl)cc4)c4ccc(OC(F)(F)F)cc4)CC3)cc2)n1 [Compound 139]	100	100
Cn1nnc(-c2ccc(CN3CCC(C(=NNC(=O)c4ccc(Br)cc4)c4ccc(OC(F)(F)F)cc4)CC3)cc2)n1 [Compound 140]	100	100
Cn1nnc(-c2ccc(CN3CCC(C(=NNC(=O)c4cccc(F)c4)c4ccc(OC(F)(F)F)cc4)CC3)cc2)n1 [Compound 142]	67	100
Cn1nnc(-c2ccc(CN3CCC(C(=NNC(=O)c4ccc(F)cc4)c4ccc(OC(F)(F)F)cc4)CC3)cc2)n1 [Compound 143]	17	87
Cn1nnc(-c2ccc(CN3CCC(C(=NNC(=O)c4ccc(I)cc4)c4ccc(OC(F)(F)F)cc4)CC3)cc2)n1 [Compound 144]	100	100
Cc1ccc(C(=O)NN=C(c2ccc(OC(F)(F)F)cc2)C2CCN(Cc3ccc(-c4nnn(C)n4)cc3)CC2)cc1 [Compound 145]	100	100
COc1ccc(C(=O)NN=C(c2ccc(OC(F)(F)F)cc2)C2CCN(Cc3ccc(-c4nnn(C)n4)cc3)CC2)cc1 [Compound 146]	100	100
CCn1nnc(-c2ccc(CN3CCC(C(=NNC(=O)c4ccc(C(F)(F)F)cc4)c4ccc(OC(F)(F)F)cc4)CC3)cc2)n1 [Compound 147]	100	92
Cn1nnc(-c2ccc(CN3CCC(C(=NNC(=O)c4ccc(OC(F)(F)F)cc4)c4ccc(OC(F)(F)F)cc4)CC3)cc2)n1 [Compound 148]	100	100
